Target: E. coli gyrase A2B2 (Escherichia coli, UniProt P0AES6)
Test: ATPase assay, E. coli gyrase A2B2 (coupled pyruvate kinase/lactate dehydrogenase)
Format: biochemical
Settings: 30° C., 0.9 mM ATP, 40 nM enzyme, read-out: Activity against E. coli gyrase (Ki)
Method: The ATP hydrolysis activity of DNA gyrase was measured by coupling the production of ADP through pyruvate kinase/lactate dehydrogenase to the oxidation of NADH. This method has been described previously. (Tamura and Gellert, 1990, J. Biol. Chem.265, 21342-21349).
ATPase assays were carried out at 30° C. in buffered solutions containing 100 mM TRIS pH 7.6, 1.5 mM MgCl2, and 150 mM KCl. The coupling system contained (final concentrations) 2.5 mM phosphoenol pyruvate, 200 μM nicotinamide adenine dinucleotide (NADH), 1 mM DTT, 30 ug/ml pyruvate kinase, and 10 ug/ml lactate dehydrogenase. 40 nM enzyme (374 kDa Gyr A2B2 from E coli) and a DMSO solution of the inhibitor to a final concentration of 4% were added and the reaction mixture allowed to incubate for 10 minutes at 30° C. The reaction was then started by the addition of ATP to a final concentration of 0.9 mM and the rate of NADH disappearance at 340 nm, measured over the course of 10 minutes. Ki values were determined from rate versus. inhibitor concentration profiles.

| SMILES | Ki [µM] |
| --- | --- |
| COC(=O)NCc1cc(-c2sc(-c3ccccc3)nc2N2CCNCC2)n[nH]1 [IA-37] | > 1.5 |
| CCOC(=O)c1cc(-c2sc(-c3ccccc3)nc2CN2CCOCC2)n[nH]1 [IA-66] | > 1.5 |
| CC(C)OC(=O)NCc1cc(-c2sc(-c3ccccc3)nc2-c2ccccc2)n[nH]1 [IA-46] | > 1.5 |
| COC(=O)NCc1cc(-c2sc(-c3ccccc3)nc2N2CCN(Cc3ccccc3)CC2)n[nH]1 [IA-18] | 0.5 to 1.5 |
| COC(=O)NCc1cc(-c2sc(-c3ccccc3)nc2N2CCCCC2C)n[nH]1 (centres unmarked) [IA-30] | < 0.5 |
| CCOC(=O)c1cc(-c2sc(-c3ccccc3)nc2CN(CC)CC)n[nH]1 [IA-69] | > 1.5 |
| CCOC(=O)c1cc(-c2cnn(-c3cccc(Cl)c3)c2C)n[nH]1 [ID-28, 1′-(3-Chloro-phenyl)-5′-methyl-1H,1′H-[3,4′]bipyrazolyl-5-carboxylic Acid Ethyl Ester] | > 1.5 |
| CCOC(=O)c1cc(-c2sc(-c3ccccc3)nc2CN2CCNCC2)n[nH]1 [IA-67] | 0.5 to 1.5 |
